The results in this text go back to ChEMBL document CHEMBL2331299, “Basic N-interlinked imipramines show apoptotic activity against malignant cells including Burkitt's lymphoma” (Bioorg Med Chem Lett, 2013).

The source made the active and inactive calls. The rule behind the calls is not given here.

Experiment [1] addresses Sodium-dependent serotonin transporter (Homo sapiens, UniProt P31645). The experiment in a line: Inhibition of human SERT expressed in HEK293-MSR cells by 5-HT uptake assay. In kind it is cell-based.
Experiment [2] deals with MUTU-I. The experiment can be described thus: Induction of apoptosis in human MUTU-I cells assessed as increase in intracellular cysteine proteases. In kind it is functional, cell-based.
Experiment [3] deals with MUTU-I. The experiment can be described thus: Induction of apoptosis in human MUTU-I cells assessed as decrease in cells at G2/M phase measured at 2.5 uM after 24 hrs by propidium iodide assay. Format: functional, cell-based.
Experiment [4] relates to HeLa. The experiment in a line: Induction of apoptosis in human HeLa cells assessed as cell death at 2.5 uM in presence of NAC ROS inhibitor. In kind it is functional, cell-based.
Experiment [5] has as its system MUTU-I. The experiment in a line: Induction of apoptosis in human MUTU-I cells assessed as cell death at 2.5 uM in presence of NAC ROS inhibitor. In kind it is functional, cell-based.
The test system of experiment [6] is DG-75. The experiment can be described thus: Reduction in cell viability of human DG75 cells after 24 hrs by Alamar blue viability assay. Format: functional, cell-based. The following applies: DG-75, 24 h. (In general: The colour change of resazurin is a common sign of viable cells or microbes.)
Experiment [7] has as its system MUTU-I. The experiment can be described thus: Induction of apoptosis in human MUTU-I cells assessed as PARP cleavage by Western blotting analysis. Format: functional, cell-based. (A western blot detects proteins with antibodies after separation by electrophoresis.)
Experiment [8] has as its system HeLa. The experiment in a line: Induction of apoptosis in human HeLa cells assessed as increase in caspase 3/7 activation by luminescence plate reader. In kind it is functional, cell-based.
A short description of experiment [9]: (§1) Induction of apoptosis in human MUTU-I cells assessed as cell death at 2.5 uM after 24 hrs by flow cytometry (reference value: 3.7 +/- 0.4%). In kind it is functional. (In general: In flow cytometry, cells or beads pass a laser one at a time.)
Experiment [10] has as its system DG-75. The experiment in a line: Induction of apoptosis in human DG75 cells assessed as increase in caspase 3/7 activation by luminescence plate reader. In kind it is functional, cell-based.
The subject of experiment [11] is DG-75. The experiment in a line: Induction of apoptosis in human DG75 cells assessed as cell death at 2.5 uM in presence of NAC ROS inhibitor. Format: functional, cell-based.
Experiment [12] relates to HeLa. The experiment can be described thus: Induction of apoptosis in human HeLa cells assessed as cell death at 2.5 uM after 8 hrs by flow cytometry. In kind it is functional, cell-based.
The subject of experiment [13] is MUTU-I. The experiment in a line: Induction of apoptosis in human MUTU-I cells assessed as cell death at 2.5 uM after 2 hrs by flow cytometry. Format: functional, cell-based.
In experiment [14] the test system is DG-75. The experiment in a line: Induction of apoptosis in human DG75 cells assessed as cell death at 2.5 uM after 24 hrs by flow cytometry (reference value: 0.8 +/- 0.25%). Format: functional.
In experiment [15] the test system is DG-75. The experiment in a line: Induction of apoptosis in human DG75 cells assessed as decrease in cells at G2/M phase measured at 2.5 uM after 24 hrs by propidium iodide assay. Format: functional, cell-based.
A short description of experiment [16]: Reduction in cell viability of human MUTU-I cells after 24 hrs by Alamar blue viability assay. Format: functional, cell-based.
Experiment [17] concerns HeLa. The experiment in a line: Induction of apoptosis in human HeLa cells assessed as increase in intracellular cysteine proteases. In kind it is functional, cell-based.
In experiment [18] the test system is HeLa. The experiment can be described thus: Induction of apoptosis in human HeLa cells assessed as cell death at 2.5 uM after 24 hrs by flow cytometry (reference value: 7 +/- 1.9%). In kind it is functional.
For experiment [19], the system named is HeLa. The experiment in a line: Reduction in cell viability of human HeLa cells after 24 hrs by Alamar blue viability assay. Format: functional, cell-based.
Experiment [20] has as its system DG-75. The experiment can be described thus: Induction of apoptosis in human DG75 cells assessed as PARP cleavage by Western blotting analysis. In kind it is functional, cell-based.
The test system of experiment [21] is MUTU-I. The experiment can be described thus: Induction of apoptosis in human MUTU-I cells assessed as increase in caspase 3/7 activation by luminescence plate reader. Format: functional, cell-based.
Experiment [22] deals with HeLa. The experiment in a line: Induction of apoptosis in human HeLa cells assessed as PARP cleavage by Western blotting analysis. Format: functional, cell-based.
The test system of experiment [23] is HeLa. The experiment can be described thus: Induction of apoptosis in human HeLa cells assessed as decrease in cells at G2/M phase measured at 2.5 uM after 24 hrs by propidium iodide assay. In kind it is functional, cell-based.
Experiment [24] relates to DG-75. The experiment can be described thus: Induction of apoptosis in human DG75 cells assessed as cell death at 2.5 uM measured after 24 hrs by flow cytometry. Format: functional, cell-based.
The subject of experiment [25] is DG-75. The experiment in a line: Induction of apoptosis in human DG75 cells assessed as increase in cells at G2/M phase measured at 2.5 uM after 24 hrs by propidium iodide assay. In kind it is functional, cell-based.
In experiment [26] the test system is MUTU-I. The experiment is described as §1. Format: functional.

Sodium-dependent serotonin transporter, sequence (P31645 whole entry): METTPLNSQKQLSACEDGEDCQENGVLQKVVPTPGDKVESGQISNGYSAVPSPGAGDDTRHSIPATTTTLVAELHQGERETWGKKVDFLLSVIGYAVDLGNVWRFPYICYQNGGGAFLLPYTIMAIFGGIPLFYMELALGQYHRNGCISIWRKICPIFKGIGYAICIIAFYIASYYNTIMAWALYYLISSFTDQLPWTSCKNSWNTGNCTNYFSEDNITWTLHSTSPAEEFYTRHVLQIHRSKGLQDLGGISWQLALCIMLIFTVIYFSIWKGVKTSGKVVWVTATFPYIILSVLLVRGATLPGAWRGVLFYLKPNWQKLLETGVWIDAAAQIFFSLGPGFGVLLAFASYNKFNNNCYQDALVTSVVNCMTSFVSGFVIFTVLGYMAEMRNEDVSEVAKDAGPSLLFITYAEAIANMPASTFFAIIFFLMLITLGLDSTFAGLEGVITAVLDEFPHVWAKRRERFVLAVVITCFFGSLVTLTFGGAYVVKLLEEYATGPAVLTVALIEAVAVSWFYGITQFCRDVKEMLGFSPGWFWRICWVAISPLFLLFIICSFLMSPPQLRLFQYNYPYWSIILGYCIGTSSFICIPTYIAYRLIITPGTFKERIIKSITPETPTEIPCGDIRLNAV

As to `CN(CCCN1c2ccccc2CCc2ccccc21)CCOCCOCCN(C)CCCN1c2ccccc2CCc2ccccc21`, the IC50 – broadly, the point on the concentration scale where inhibition reaches its midpoint – stood at 4.8 µM in experiment [1], 1.51 µM in the experiment on DG-75 [6], 0.62 µM in experiment [16] and 1.41 µM in the experiment with HeLa [19]. Also, the result with MUTU-I [2], in the experiment with MUTU-I [3], in the experiment with HeLa [4], in the experiment on MUTU-I [5], with MUTU-I [7] and in the experiment with HeLa [8] was Active. Further, the outcome in the experiment with DG-75 [11], with HeLa [12], in the experiment on MUTU-I [13], with DG-75 [15], in the experiment with HeLa [17] and with MUTU-I [21] was Active. Besides, the outcome in the experiment on HeLa [22], in the experiment with HeLa [23] and in the experiment with DG-75 [24] was Active. Moreover, the Activity in [9] was found to be 56.2%; with DG-75 [14] it was 40.9%; with HeLa [18], 44.4%. The result with DG-75 [10] and with DG-75 [20] was inactive.

As for `CC(=O)O[C@H]1C(=O)[C@@]2(C)[C@H]([C@H](OC(=O)c3ccccc3)[C@]3(O)C[C@H](OC(=O)[C@H](O)[C@@H](NC(=O)c4ccccc4)c4ccccc4)C(C)=C1C3(C)C)[C@]1(OC(C)=O)CO[C@@H]1C[C@@H]2O`, the outcome in the experiment on DG-75 [25], in the experiment on MUTU-I [26] and in the experiment with HeLa [18] was Active. Moreover, the result in the experiment on DG-75 [14] was inactive.

On to `CNCCCN1c2ccccc2CCc2ccccc21` [DESIPRAMINE], for which the result in the experiment on MUTU-I [3], in the experiment with DG-75 [15] and with HeLa [23] was inactive. The results for the IC50 (with DG-75 [6]; in experiment [16]; with HeLa [19]) were 39.8 µM, 7.94 µM and 17.8 µM, respectively.

For `CN(CCCN1c2ccccc2CCc2ccccc21)CCOCCOCCOCCN(C)CCCN1c2ccccc2CCc2ccccc21`, the IC50 was 5.5 µM in experiment [1], 1.91 µM with DG-75 [6], 1.15 µM in [16] and 1.58 µM in the experiment on HeLa [19]. In addition, the result in the experiment with MUTU-I [2], in the experiment with MUTU-I [3], with HeLa [4], with MUTU-I [5], with MUTU-I [7] and in the experiment on HeLa [8] was Active. For the same molecule, the result with DG-75 [11], in the experiment with HeLa [12], in the experiment with MUTU-I [13], in the experiment with DG-75 [15], in the experiment on HeLa [17] and in the experiment on MUTU-I [21] was Active. In addition, the result in the experiment on HeLa [22], in the experiment with HeLa [23] and in the experiment on DG-75 [24] was Active. Further, the Activity in experiment [9] is on record as 46.3%; with DG-75 [14], 54.6%; in the experiment with HeLa [18], 46%. Also, the result with DG-75 [10] and in the experiment with DG-75 [20] was inactive.

Take `CN(CCCN1c2ccccc2CCc2ccccc21)CCOCCN(C)CCCN1c2ccccc2CCc2ccccc21`: the IC50 in experiment [1] stood at 6 µM; with DG-75 [6] it was 1.89 µM; in [16], 1.05 µM; with HeLa [19], 1.74 µM. The result in the experiment on MUTU-I [2], in the experiment on MUTU-I [3], in the experiment with HeLa [4], in the experiment with MUTU-I [5], with MUTU-I [7] and in the experiment with HeLa [8] was Active. Moreover, the outcome in the experiment on DG-75 [11], in the experiment with HeLa [12], with MUTU-I [13], in the experiment with DG-75 [15], in the experiment on HeLa [17] and with MUTU-I [21] was Active. Moreover, the outcome in the experiment with HeLa [22], with HeLa [23] and in the experiment on DG-75 [24] was Active. For the same molecule, the Activity in [9] is on record as 66.6%; with DG-75 [14], 22.8%; in the experiment with HeLa [18], 61.7%. Further, the outcome in the experiment with DG-75 [10] and in the experiment on DG-75 [20] was inactive.

With `CN(CCCN1c2ccccc2CCc2ccccc21)C(=O)COCCOCC(=O)N(C)CCCN1c2ccccc2CCc2ccccc21`, the IC50 in experiment [1] came to 46 µM; in the experiment with DG-75 [6], 18.6 µM; in [16], 5.75 µM; with HeLa [19], 22.9 µM. The result in the experiment with MUTU-I [3], in the experiment on DG-75 [15] and with HeLa [23] was inactive.

As to `CN(C)CCCN1c2ccccc2CCc2ccccc21` [IMIPRAMINE], the outcome with MUTU-I [3], in the experiment on DG-75 [15] and with HeLa [23] was inactive. In addition, the IC50 with DG-75 [6] is more than 50 µM; in experiment [16] it was 14.1 µM; with HeLa [19], 40.7 µM.
